Like-named read-outs stand apart in the source and are kept apart here.
How the values were obtained:
Format in all cases: in vivo
Setaria viridis [1] = assay: Post-emergence herbicidal action against harmful plants; conditions: 504 h, scored after 3 to 4 weeks, read-out: Activity against harmful plants SETVI; for pest or weed control at 20 g/ha: 20 g a.i./ha; for pest or weed control at 80 g/ha: Comparative table 3, post-emergence, 80 g a.i./ha
Description: (§1) Seeds of mono- and dicotyledonous harmful plants are placed in sandy loam in cardboard pots, covered with soil and grown in the greenhouse under good growth conditions. Two to three weeks after sowing, the test plants are treated at the three-leaf stage. The compounds according to the invention, which are formulated as wettable powders or as emulsion concentrates, are sprayed at an application rate of 600 to 800 l of water/ha (converted) in a dosage stated in tables 1 to 5 onto the surface of the green plant parts. After the test plants have been left to stand in the greenhouse for 3 to 4 weeks under optimum growth conditions, the action of the compounds according to the invention is scored in comparison to compounds disclosed in the prior art. As shown by the results of these comparison tables, the selected compounds according to the invention have better herbicidal activity against a broad spectrum of economically important mono- and dicotyledonous harmful plants than the compounds disclosed in the prior art.

Veronica persica [2] = assay: as above; conditions: 20 g a.i./ha, scored after 3 to 4 weeks
Description: as §1

Viola tricolor [3] = assay: as above; conditions: Comparative table 1, post-emergence, 20 g a.i./ha, scored after 3 to 4 weeks
Description: as §1

Amaranthus retroflexus [4] = assay: as above; conditions: 80 g a.i./ha, scored after 3 to 4 weeks
Description: as §1

Galium aparine [5] = assay: as above; conditions: Comparative table 2, post-emergence, 80 g a.i./ha, scored after 3 to 4 weeks
Description: as §1

Xanthium strumarium [6] = assay: as above; conditions: Comparative table 2, post-emergence, 80 g a.i./ha, scored after 3 to 4 weeks
Description: as §1

Cyperus serotinus [7] = assay: as above; conditions: Comparative table 3, post-emergence, 80 g a.i./ha, scored after 3 to 4 weeks
Description: as §1

Abutilon theophrasti = assay: as above; conditions: 20 g a.i./ha, scored after 3 to 4 weeks
Description: as §1

Cyperus serotinus [8] = assay: Pre-emergence herbicidal action against harmful plants; conditions: Comparative table 5, pre-emergence, 320 g a.i./ha, visual scoring 3-4 weeks after treatment
Description: (§2) Seeds or rhizome pieces of mono- and dicotyledonous harmful plants are placed in sandy loam in pots of a diameter of 9 to 13 cm and covered with soil. The herbicides, formulated as emulsifiable concentrates or dusts, are applied to the surface of the covering soil in the form of aqueous dispersions or suspensions or emulsions at an application rate of 300 to 800 l of water/ha (converted), at various dosages. For further cultivation of the plants, the pots are then kept in a greenhouse under optimum conditions. The visual scoring of the damage to the harmful plants is carried out 3-4 weeks after the treatment. As shown by the results of these comparative tables, the selected compounds according to the invention have better herbicidal activity against a broad spectrum of economically important mono- and dicotyledonous harmful plants than the compounds disclosed in the prior art.

Lolium multiflorum = assay: as above; conditions: Comparative table 5, pre-emergence, 320 g a.i./ha, visual scoring 3-4 weeks after treatment
Description: as §2

Stellaria media = assay: as above; conditions: Comparative table 5, pre-emergence, 320 g a.i./ha, visual scoring 3-4 weeks after treatment
Description: as §2

ALOMY = assay: as above; conditions: Comparative table 6, pre-emergence, 320 g a.i./ha, visual scoring 3-4 weeks after treatment
Description: as §2

Amaranthus retroflexus [9] = assay: as above; conditions: visual scoring 3-4 weeks after treatment
Description: as §2

Matricaria inodora = assay: as above; conditions: Comparative table 6, pre-emergence, 320 g a.i./ha, visual scoring 3-4 weeks after treatment
Description: as §2

Setaria viridis [10] = assay: as above; conditions: Comparative table 7, pre-emergence, 20 g a.i./ha, visual scoring 3-4 weeks after treatment
Description: as §2

Veronica persica [11] = assay: as above; conditions: Comparative table 7, pre-emergence, 20 g a.i./ha, visual scoring 3-4 weeks after treatment
Description: as §2

Viola tricolor [12] = assay: as above; conditions: Comparative table 7, pre-emergence, 20 g a.i./ha, visual scoring 3-4 weeks after treatment
Description: as §2

Galium aparine [13] = assay: as above; conditions: Comparative table 9, pre-emergence, 320 g a.i./ha, visual scoring 3-4 weeks after treatment
Description: as §2

Xanthium strumarium [14] = assay: as above; conditions: Comparative table 9, pre-emergence, 320 g a.i./ha, visual scoring 3-4 weeks after treatment
Description: as §2

[15] = Comparative table 1, post-emergence
[16] = Comparative table 2, post-emergence
[17] = Comparative table 3, post-emergence
[18] = Comparative table 4, post-emergence
[19] = Comparative table 6, pre-emergence, 320 g a.i./ha
[20] = Comparative table 7, pre-emergence, 20 g a.i./ha
[21] = Comparative table 8, post-emergence

With `Cc1nn(C)c(O)c1C(=O)c1ccc(S(C)(=O)=O)c(N)c1C` the pest or weed control at 20 g/ha (Setaria viridis [1]; [15]) was 80%, the “Activity against harmful plants VERPE” value (Veronica persica [2]; [15]) was 90% and the “Activity against harmful plants VIOTR” value (Viola tricolor [3]) was 80%.

In the case of `Cc1nn(C)c(O)c1C(=O)c1ccc(S(C)(=O)=O)c(N)c1Cl`, the pest or weed control at 20 g/ha (Setaria viridis [1]; [15]) is reported as 40%, the “Activity against harmful plants VERPE” value (Veronica persica [2]; [15]) is reported as 70% and the “Activity against harmful plants VIOTR” value (Viola tricolor [3]) is reported as 70%.

For `CNc1c(S(C)(=O)=O)ccc(C(=O)c2c(C)nn(C)c2O)c1C`, the “Activity against harmful plants AMARE” value (Amaranthus retroflexus [4]; [16]) was 90%, the “Activity against harmful plants GALAP” value (Galium aparine [5]) was 80% and the “Activity against harmful plants XANST” value (Xanthium strumarium [6]) was 70%.

`CNc1c(S(C)(=O)=O)ccc(C(=O)c2c(C)nn(C)c2O)c1Cl` was tested, and the “Activity against harmful plants AMARE” value (Amaranthus retroflexus [4]; [16]) was 70%, the “Activity against harmful plants GALAP” value (Galium aparine [5]) was 60% and the “Activity against harmful plants XANST” value (Xanthium strumarium [6]) was 50%.

With `CCCNc1c(S(C)(=O)=O)ccc(C(=O)c2c(C)nn(C)c2O)c1C` the “Activity against harmful plants AMARE” value (Amaranthus retroflexus [4]; [17]) was 100%, the “Activity against harmful plants CYPES” value (Cyperus serotinus [7]) was 80% and the pest or weed control at 80 g/ha (Setaria viridis [1]) was 90%.

For `CCCNc1c(S(C)(=O)=O)ccc(C(=O)c2c(C)nn(C)c2O)c1Cl`, the “Activity against harmful plants AMARE” value (Amaranthus retroflexus [4]; [17]) was 70%, the “Activity against harmful plants CYPES” value (Cyperus serotinus [7]) was 50% and the pest or weed control at 80 g/ha (Setaria viridis [1]) was 70%.

With `Cc1nn(C)c(O)c1C(=O)c1ccc(S(C)(=O)=O)c(NC(C)C)c1C` the “Activity against harmful plants ABUTH” value (Abutilon theophrasti; [18]) was 90%, the pest or weed control at 20 g/ha (Setaria viridis [1]; [18]) was 90% and the “Activity against harmful plants VERPE” value (Veronica persica [2]; [18]) was 70%.

In the case of `Cc1nn(C)c(O)c1C(=O)c1ccc(S(C)(=O)=O)c(NC(C)C)c1Cl`, the “Activity against harmful plants ABUTH” value (Abutilon theophrasti; [18]) is reported as 80%, the pest or weed control at 20 g/ha (Setaria viridis [1]; [18]) is reported as 80% and the “Activity against harmful plants VERPE” value (Veronica persica [2]; [18]) is reported as 40%.

For `CCOCCNc1c(S(C)(=O)=O)ccc(C(=O)c2c(C)nn(C)c2O)c1C`, the “Activity against harmful plants CYPES” value (Cyperus serotinus [8]) was 80%, the “Activity against harmful plants LOLMU” value (Lolium multiflorum) was 50% and the “Activity against harmful plants STEME” value (Stellaria media) was 90%.

For `CCOCCNc1c(S(C)(=O)=O)ccc(C(=O)c2c(C)nn(C)c2O)c1Cl`, the “Activity against harmful plants CYPES” value (Cyperus serotinus [8]) was 60%, the “Activity against harmful plants LOLMU” value (Lolium multiflorum) was 0% and the “Activity against harmful plants STEME” value (Stellaria media) was 0%.

In the case of `Cc1nn(C)c(O)c1C(=O)c1ccc(S(C)(=O)=O)c(NCC2CC2)c1C`, the “Activity against harmful plants ALOMY” value (ALOMY) is reported as 60%, the “Activity against harmful plants AMARE” value (Amaranthus retroflexus [9]; [19]) is reported as 100% and the “Activity against harmful plants MATIN” value (Matricaria inodora) is reported as 80%.

In the case of `Cc1nn(C)c(O)c1C(=O)c1ccc(S(C)(=O)=O)c(NCC2CC2)c1Cl`, the “Activity against harmful plants ALOMY” value (ALOMY) is reported as 20%, the “Activity against harmful plants AMARE” value (Amaranthus retroflexus [9]; [19]) is reported as 90% and the “Activity against harmful plants MATIN” value (Matricaria inodora) is reported as 0%.

With `Cc1nn(C)c(O)c1C(=O)c1ccc(S(C)(=O)=O)c(N(C)CC2CC2)c1C` the “Activity against harmful plants AMARE” value (Amaranthus retroflexus [9]; [20]) was 100%, the “Activity against harmful plants SETVI” value (Setaria viridis [10]) was 90% and the “Activity against harmful plants VERPE” value (Veronica persica [11]) was 90%. The “Activity against harmful plants VIOTR” value (Viola tricolor [12]) was 100%.

In the case of `Cc1nn(C)c(O)c1C(=O)c1ccc(S(C)(=O)=O)c(N(C)CC2CC2)c1Cl`, the “Activity against harmful plants AMARE” value (Amaranthus retroflexus [9]; [20]) is reported as 20%, the “Activity against harmful plants SETVI” value (Setaria viridis [10]) is reported as 0% and the “Activity against harmful plants VERPE” value (Veronica persica [11]) is reported as 0%. The “Activity against harmful plants VIOTR” value (Viola tricolor [12]) was 0%.

For `COCCCNc1c(S(C)(=O)=O)ccc(C(=O)c2c(C)nn(C)c2O)c1C`, the “Activity against harmful plants ABUTH” value (Abutilon theophrasti; [21]) was 90% and the pest or weed control at 20 g/ha (Setaria viridis [1]; [21]) was 100%.

With `COCCCNc1c(S(C)(=O)=O)ccc(C(=O)c2c(C)nn(C)c2O)c1Cl` the “Activity against harmful plants ABUTH” value (Abutilon theophrasti; [21]) was 70% and the pest or weed control at 20 g/ha (Setaria viridis [1]; [21]) was 70%.

`Cc1nn(C)c(O)c1C(=O)c1ccc(S(C)(=O)=O)c(N(C)C)c1C` was tested, and the “Activity against harmful plants GALAP” value (Galium aparine [13]) was 90% and the “Activity against harmful plants XANST” value (Xanthium strumarium [14]) was 100%.

With `CCn1ncc(C(=O)c2ccc(S(C)(=O)=O)c(N(C)C)c2C)c1O` the “Activity against harmful plants GALAP” value (Galium aparine [13]) was 80% and the “Activity against harmful plants XANST” value (Xanthium strumarium [14]) was 10%.

From patent publication US8178695B2, “4-(3-aminobenzoyl)-1,3-dimethylpyrazoles and their use as herbicides” (Bayer Cropscience AG, priority 2007, dated 2012)
